Patent US8835392B2, “Mimetic peptides and the use thereof in the form of 20S, 26S and immunoproteasome inhibitors” (Technische Universität, priority 2005, dated 2014)
“Also recorded” adds a separate entry of the source. Where a SMILES comes first, the peptide text is derived from it. [ ]: non-standard residue; d: D form. The star is where a group is joined. Leu(ol) = CC(C)C[C@H](N)CO; Cbz = O=C(OCc1ccccc1)*; Boc = CC(C)(C)OC(=O)*; OBn = c1ccc(CO*)cc1; OtBu = CC(C)(C)O*; CH2Cl = ClC*

Assays:
[1] = target: T1, 20S proteasome β1 caspase-like activity (LLE-MCA) (Homo sapiens, UniProt P28072+Q99436); assay: Protease assay, caspase-like activity of isolated 20S proteasomes; format: biochemical; details: isolated 20S proteasome; LLE-MCA 50 μM; 15 min pre-incubation; read-out: IC50 β1 Caspase-like (E)
T1 construct: Proteasomes were isolated from red blood cells; from tissue; host or cells: red blood cells
Procedure: (§1) Proteasomes were isolated from red blood cells. Cells were lysed with DTT (1 mM), and the stroma-free supernatant was loaded on DEAE-sepharose (Toyopearls). Proteasome was eluted with an NaCl-gradient in TEAD (20 mM TrisCl pH 7.4, 1 mM EDTA, 1 mM azide, 1 mM DTT) of 100 to 300 mM NaCl. Proteasome was concentrated using ammonium sulfate-precipitation (between 40 and 70% saturation) and was separated in a 10-40% sucrose-gradient through centrifugation at 40.000 rpm for 16 hours (SW40; L7, Beckman & Coulter). Finally, the proteasomes were purified on a MonoQ-column and eluted with an NaCl-gradient at about 280 mM NaCl. The fractions containing purified proteasome were dialysed against 50 mM NaCl in TEAD and stored on ice. The purity was determined using SDS-PAGE.
(§2) Suc-LLVY-AMC, Z-VGR-AMC and LLE-AMC (BACHEM, Calbiochem) was used, in order to determine the chymotrypsin-like, trypsin-like or caspase-like (post-acidic)-activities of the proteasome. Substrate was incubated with proteasome at 37° C. in assay-buffer (20 mM Tris/Cl, pH 7.2, 1 mM EDTA, 1 mM DTT) for one hour. 100 ng proteasome was pre-incubated with 0.01-10 μM of the inhibitor for […]. The reaction was started by the addition of substrate (50 μM). The AMC as released was detected using fluorescence emission at 460 nm (excitation at 390 nm) using a TECAN-fluorimeter. The activity was calculated in fluorescence-units. The inhibition is depicted by IC50-values.
(§3) The effects thereof were compared with the one of the commonly used proteasomal inhibitor 3 (MG132). The chymotrypsin-like (Suc-LLVY-AMC), the trypsin-like (Bz-VGR-AMC), and the caspase-like (Z-LLE-AMC)-activities of 20S proteasomes were determined following incubation for one hour at 37° C.
(§4) The IC50-values form the inhibition of the proteasome were calculated at increasing concentrations of the inhibitor. The samples were pre-incubated for 15 min in ice. The assay was started through the addition of 50 μM of one of the following fluorogenic peptide substrates:
(§5) The release of MCA was determined at 460 nm emission (excitation 390 nm). The IC50-values as calculated for MG132 served as controls.

[2] = target: T2, 20S proteasome β5 chymotrypsin-like activity (Suc-LLVY-AMC) (Homo sapiens, UniProt P20618+P28074); assay: Protease assay, chymotrypsin-like activity of isolated 20S proteasomes (LLVY substrate); format: biochemical; details: isolated 20S proteasome; LLVY-MCA 50 μM; 15 min pre-incubation; read-out: IC50 β5 Chymotrypsin-like (Y)
T2 construct: Proteasomes were isolated from red blood cells; from tissue; host or cells: red blood cells
Procedure: as §1, §2
The chymotrypsin-like (Suc-LLVY-AMC), the trypsin-like (Bz-VGR-AMC), and the caspase-like (Z-LLE-AMC)-activities of 20S proteasomes were determined following incubation for one hour at 37° C.
as §4, §5

[3] = target: T3, 20S proteasome β2 trypsin-like activity (VGR-MCA) (Homo sapiens, UniProt P49720+Q99436); assay: Protease assay, trypsin-like activity of isolated 20S proteasomes; format: biochemical; details: isolated 20S proteasome; VGR-MCA 50 μM; 15 min pre-incubation; read-out: IC50 β2 Trypsin-like (R)
T3 construct: Proteasomes were isolated from red blood cells; from tissue; host or cells: red blood cells
Procedure: as §1, §2, §3, §4, §5

20S proteasome = test system: T4, 20S proteasome; assay: Inhibition of the different proteasomal activities, summary statements; format: biochemical; details: isolated proteasomes, specific substrates
T4 construct: Proteasomes were isolated from red blood cells; from tissue; host or cells: red blood cells
Procedure: The specific inhibition of a single catalytic site is of specific interest for the development of drugs. Thus, the inhibition of the different proteasomal activities of the proteasome was analysed (see also example 6). The different cleavage-preferences of the proteasome were determined by the specific substrate for the hydrophobic (chymotrypsin-like), the trypsine-like and the caspase-like activities of isolated proteasomes.
as §2, §3

[4] = target: T5, proteasomal activity in HeLa-cells (Homo sapiens, UniProt P20618+P28074); assay: Intracellular inhibition of proteasomes in cultivated HeLa-cells; format: cell-based; details: for reduction of the specific proteasomal activity in cells: 1 μM; for membrane-permeation / stability during the incubation periods: cultivated cells
T5 construct: endogenous in cells; host or cells: HeLa
Procedure: (§6) A, HeLa-cells were cultivated were 24 hours in the presence of the inhibitor. The protein concentration was determined in accordance with the cellular lysis according to Bradford in order to normalise the proteasomal activities to the different amounts of cells. Subsequently Complete (Roche) was added to all lysates, and the proteasomal activity was determined through the hydrolysis of Suc-LLVY-AMC. B, HeLa-cells was incubated with 1 μM of compound 15 for 2, 4, 6 and 24 hours. Cells were lysed, and proteins were separated through SDS-PAGE on a 10% gel, blotted to a PVDF-membrane. The accumulation of the poly-ubiquitinylated proteins was detected in a Western blot by an anti-ubiquitine-antibody (DAKO). C, HeLa-Cells were treated with increasing concentrations of the inhibitor 15, 25, 26, 27, and 28 for 24 hours (lane 1: without inhibitor; lane 2: 10 nM; lane 3: 100 nM and lane 4: 1 μM of the given inhibitor). Cells were lysed, proteins were separated on 15% gels, and the accumulation of the poly-ubiquitinylated proteins was controlled through Western blot.
HeLa-Cells were cultivated in RPMI, supplemented with 10% FCS and penicillin/streptomycin, at 5% CO2. Inhibitors were administered from 100×-stock solutions (in DMSO) at the final concentrations as indicated, and incubated with the cells for at least 20 hours.
Cultivated cells (HeLa) were harvested lysed and with 0.1% NP40 in TEAD in the presence of the commercially available protease-inhibitor-mixture Complete (Roche). The proteasomal activity was measured in 10 μl of the lysate using Suc-LLVY-AMC as a substrate. The protein content was quantified by means of Bradford (Protein assay; BioRad).
An application on cell cultures or animals requires that the concentrations of the inhibitors are chose as low as required. The specific proteasomal activity was reduced to a value of below 50% in cells that were treated with 1 μM of the compounds 15, 22, 25, 26, or 28, respectively (FIG. 6A).

[5] = Hydrolytic stability of dichlorovinylethers; format: physicochemical; details: for stability at pH 11: converted into α-chloroacetates
From the text: The non-selective dichlorovinylester 1 (see FIG. 1), which readily reacts with all possible nucleophiles, such as, for example, cysteine, serine and finally also threonine, served as a further lead-structure for the syntheses of compounds according to the invention. In addition, the aim was pursued to reduce the inherent over-activation of this compound. The “removal” of the acyl group of 1 could reduce the non-specific hydrolysis through ubiquitary nucleophiles, and results in quite stable dichlorovinylethers (28). […] This dual reactivity which is provided in a cascade-like reaction, corresponds to the specific requirements for an N-terminal threonine-protease-inhibitor.

[6] = test system: poly-ubiquitinylated proteins in HeLa-cells; assay: Accumulation of poly-ubiquitinylated proteins, Western blot; format: cell-based; details: 1 μM for compound 15
Procedure: as §6
A specific inhibition of the proteasome lead to an accumulation of poly-ubiquitinylated proteins. Indeed, the amount of poly-ubiquitinylated proteins increased during the incubation with the inhibitors. First effects were observed after 2 hours, for compound 15 (FIG. 6B) as well as for compounds 20, 22, 25 and 28 (data not shown).
50 μg of whole-cell-lysate were separated by SDS-PAGE, and blottet onto a PVDF-membrane (Millipore). The blots were blocked by means of a 5% milk-suspension. The poly-ubiquitinylated proteins were detected by anti-ubiquitin-antibody (DAKO), and anti-rabbit, POD-labelled, as a secondary antibody (DIANOVA), and visualized through ECL.

[7] = target: T6, 20S proteasome β5 chymotrypsin-like activity (GLL-MCA) (Homo sapiens, UniProt P20618+P28074); assay: Protease assay, chymotrypsin-like activity of isolated 20S proteasomes (GLL substrate); format: biochemical; details: isolated 20S proteasome; GLL-MCA 50 μM; 15 min pre-incubation; read-out: IC50 β5 Chym.-like (L)
T6 construct: Proteasomes were isolated from red blood cells; from tissue; host or cells: red blood cells
Procedure: as §1, §2, §4, §5

HeLa-cells = assay: Viability of HeLa-cells, crystal violet-staining; format: cell-based; details: 10 μM, 20 hours
Procedure: A, The viability of HeLa-Cells that were incubated with the compounds 7-28 and MG132 (1 μM), was determined using crystal-violet-staining after 20 h.
B, The viability of HeLa-Cells is dependent from the concentration of the inhibitor. HeLa-cells were cultivated for 20 hours in the presence of increasing concentrations (10 to 10000 nM) of the compounds (7, 13, 15, 18, 20-22, 24-28) and MG 132. The survival of the cells was determined using crystal-violet-staining.
The viability of Hela-Cells in the presence of different compounds was tested in […]. The viability of HeLa-cells was tested through crystal violet-staining following the incubation with the inhibitors. The cells were washed once with PBS, fixed with 1% glutardialdehyde for 30 min, and washed again. Finally, the fixed cells were stained with 0.1% crystal violet in PBS for 30 min, and subsequently carefully washed with water, in order to remove unbound dye. The residual dye was eluted with 0.1% Triton X-100 in PBS, and determined at 550 nm.

Row | SMILES | IC50 [1] | IC50 [2] | which proteasomal activities are inhibited (site selectivity) (20S proteasome) | other results
1 | CC(C)C[C@@H](CO)NC(=O)[C@H](CC(=O)OC(C)(C)C)NC(=O)[C@H](CC(C)C)NC(=O)OCc1ccccc1 [Compound 8] (Cbz-Leu-Asp(OtBu)-[Leu(ol)]) | > 10 µM | > 10 µM | exclusive inhibition of the trypsin-like activity; also recorded: specifically reduced the trypsine-like activity | IC50 [3]: 5.48 µM
2 | CC(=O)N[C@@H](CC(C)C)C(=O)N[C@@H](CC(=O)OC(C)(C)C)C(=O)N[C@H](CO)CC(C)C [Compound 9] (Ac-Leu-Asp(OtBu)-[Leu(ol)]) |  | > 10 µM |  | 
3 | CC(=O)N[C@@H](CC(C)C)C(=O)N[C@@H](CC(=O)OCc1ccccc1)C(=O)N[C@H](CO)CC(C)C [Compound 10] (Ac-Leu-Asp(OBn)-[Leu(ol)]) |  | > 10 µM |  | 
4 | CC(C)C[C@@H](CO)NC(=O)[C@H](CC(=O)OCc1ccccc1)NC(=O)[C@H](CC(C)C)NC(=O)OCc1ccccc1 [Compound 11] (Cbz-Leu-Asp(OBn)-[Leu(ol)]) |  | > 10 µM |  | 
5 | CC(C)C[C@@H](CO)NC(=O)[C@H](CC(=O)OCc1ccccc1)NC(=O)[C@H](CC(C)C)NC(=O)OC(C)(C)C [Compound 12] (Boc-Leu-Asp(OBn)-[Leu(ol)]) |  | > 10 µM |  | 
6 | CC(C)C[C@@H](C=O)NC(=O)[C@H](CC(=O)O)NC(=O)[C@H](CC(C)C)NC(=O)OCc1ccccc1 [Compound 16] (Cbz-Leu-Asp-Leu-aldehyde) | > 10 µM | 7.26 µM | exclusive reduction of the chymotryptic activity | IC50 [3]: > 10 µM
7 | CC(C)C[C@@H](C=O)NC(=O)[C@H](CC(=O)OCc1ccccc1)NC(=O)[C@H](CC(C)C)NC(=O)OCc1ccccc1 [Compound 18] (Cbz-Leu-Asp(OBn)-Leu-aldehyde) | 3.12 µM | 1.73 µM | inhibited the chymotryptic and the caspase-like sites | reduction of the specific proteasomal activity in cells ([4]; HeLa cells): very weak inhibition
8 | CC(C)C[C@H](NC(=O)OCc1ccccc1)C(=O)N[C@@H](CC(C)C)C(=O)N[C@H](COC(Cl)=CCl)c1ccccc1 [Compound 19] |  |  |  | stability in acidic environment [5]: tolerate an acidic environment; stability at pH 11 [5]: hydrolysed readily
9 | CC(C)C[C@@H](COC(Cl)=CCl)NC(=O)[C@H](CC(C)C)NC(=O)[C@H](CC(C)C)NC(=O)OCc1ccccc1 [Compound 20] | > 10 µM | > 10 µM |  | stability in acidic environment [5]: tolerate an acidic environment; stability at pH 11 [5]: hydrolysed readily; IC50 [3]: > 10 µM; first effects on accumulation of poly-ubiquitinylated proteins observed after [6]: 2 h
10 | CC(C)C[C@H](NC(=O)OCc1ccccc1)C(=O)N[C@@H](CC(C)C)C(=O)N[C@@H](CC(C)C)C(O)C#Cc1ccccc1 (some centres unmarked) [Compound 21] |  | 1.3 µM | exclusive reduction of the chymotryptic activity | IC50 [7]: > 10 µM; reduction of the specific proteasomal activity in cells ([4]; HeLa cells): very weak inhibition
11 | CC(C)CC(NC(=O)C(CC(C)C)NC(=O)C(CC(C)C)NC(=O)OCc1ccccc1)C(=O)CCl (stereo not drawn) [Compound 22] (Cbz-Leu-Leu-Leu-CH2Cl; configuration not given here) |  | 2.2 µM | exclusive reduction of the chymotryptic activity | first effects on accumulation of poly-ubiquitinylated proteins observed after [6]: 2 h; reduction of the proteolytic activity in cells at 10 nM ([4]; HeLa cells, 10 nM): reduction of the proteolytic activity; membrane-permeation [4]: membrane-permeation; stability during the incubation periods [4]: sufficient stability
12 | CC(C)C[C@H](NC(=O)OCc1ccccc1)C(=O)N[C@@H](CC(C)C)C(=O)N[C@@H](CC(C)C)C(O)C(=O)Nc1ccccc1 (some centres unmarked) [Compound 25] | 4.04 µM | 0.981 µM | inhibited the chymotryptic and the caspase-like sites | first effects on accumulation of poly-ubiquitinylated proteins observed after [6]: 2 h; membrane-permeation [4]: membrane-permeation; stability during the incubation periods [4]: sufficient stability
13 | CC(C)C[C@H](NC(=O)OCc1ccccc1)C(=O)N[C@@H](CC(C)C)C(=O)N[C@@H](CC(C)C)C(=O)C(=O)NCc1cccnc1 [Compound 27] | 7.97 µM |  | inhibited the chymotryptic and the caspase-like sites | rate of survival of HeLa-cells (HeLa-cells): markedly reduced; reduction of the specific proteasomal activity in cells ([4]; HeLa cells): markedly reduction
